According to PMC10978996 (Nature Communications, 2024):

Experiments:
PsiM [1] = target: T1, PsiM (Psilocybe cubensis, UniProt P0DPA9); assay: isothermal titration calorimetry; type: binding
T1 construct: full length, E. coli; Crystals: pJF45, His6 cut off by thrombin, vector-derived TEV site kept at N-terminus; Wild-type ITC and activity: His6-tagged without thrombin/TEV sites (pFB13); N247M: made from pJF45 template in pET-28a

PsiM [2] = target: T1, PsiM; assay: UHPLC-MS methyltransferase assay, Michaelis-Menten; type: biochemical; details: 1 mM SAM, 50 mM Tris pH 8.4, 28 °C; first methyl transfer
[3] = system: CNCCc1c[nH]c2cccc(OP(=O)(O)O)c12; assay: UHPLC-MS methyltransferase assay, Michaelis-Menten; type: biochemical, Psilocybe cubensis; details: 1 mM SAM, 50 mM Tris pH 8.4, 28 °C, second methyl transfer

Molecule: NCCc1c[nH]c2cccc(OP(=O)(O)O)c12 [norbaeocystin]
- Kd (PsiM [1]): 35.7 ± 5.4 µM
- Km (PsiM [2]): 575 ± 100 µM

Molecule: Nc1ncnc2c1ncn2[C@@H]1O[C@H](CSCC[C@H](N)C(=O)O)[C@@H](O)[C@H]1O [SAH]
- Kd (PsiM [1]): 66 ± 49 µM

Molecule: PsiM (Psilocybe cubensis)
- Km [3]: 492 ± 154 µM
- kcat [3]: 0.001 ± 0.00017 s⁻¹

Molecule: CNCCc1c[nH]c2cccc(OP(=O)(O)O)c12 [baeocystin]
- Kd (PsiM [1]): 77.2 ± 3.5 µM
